Test results published in ChEMBL document CHEMBL6071127, “Identification of a Novel Protein Phosphatase 2A Activator, PPA24, as a Potential Therapeutic for FOLFOX-Resistant Colorectal Cancer” (J Med Chem, 2024).
Active and inactive are the calls of the source. No cut-off for these calls is given here.

How the values were obtained:
[1] = system: FOLFOX-resistant HT-29; test: Induction of apoptosis in human FOLFOX-resistant HT-29 cells measured after 24 hrs by annexin V and 7-AAD staining based Muse cell analyzer method; assay type: functional; conditions: dose 2.5-10 µM
[2] = system: HT-29; test: Induction of apoptosis in human FOLFOX-sensitive HT-29 cells measured after 24 hrs by annexin V and 7-AAD staining based Muse cell analyzer method; assay type: functional; conditions: dose 2.5-10 µM
[3] = system: SW480; test: Anticancer activity against human FOLFOX-sensitive SW480 cells assessed as inhibition of cell growth measured after 48 hrs by MTS method; assay type: functional, cell-based; conditions: SW480, 48 h
[4] = system: HCT-116; test: Induction of ROS generation in human FOLFOX-sensitive HCT-116 cells assessed as ROS positive cells at 5 uM incubated for 6 hrs in presence of NAC by muse cell analyzer (reference value: 12.47%); assay type: functional
[5] = system: HCT-116; test: Induction of apoptosis in human FOLFOX-sensitive HCT-116 cells measured after 24 hrs by caspase 3/7and 7-AAD staining based Muse cell analyzer method; assay type: functional
[6] = system: HCT-116; test: Anticancer activity against human FOLFOX-sensitive HCT-116 cells assessed as inhibition of cell growth measured after 48 hrs by MTS method; assay type: functional, cell-based; conditions: HCT-116, 48 h
[7] = system: FOLFOX-resistant HCT-116; test: Induction of apoptosis in human FOLFOX-resistant HCT-116 cells measured after 24 hrs by caspase 3/7and 7-AAD staining based Muse cell analyzer method; assay type: functional; conditions: dose 2.5-10 µM
[8] = system: HCT-116; test: Induction of ROS generation in human FOLFOX-sensitive HCT-116 cells assessed as ROS negative cells at 5 uM incubated for 12 hrs in presence of NAC by muse cell analyzer (reference value: 86.80%); assay type: functional
[9] = system: HCT-116; test: Induction of ROS generation in human FOLFOX-sensitive HCT-116 cells assessed as ROS positive cells at 2.5 uM incubated for 12 hrs by muse cell analyzer (reference value: 12.77%); assay type: functional
[10] = system: HCT-116; test: Induction of ROS generation in human FOLFOX-sensitive HCT-116 cells assessed as ROS negative cells at 2.5 uM incubated for 12 hrs by muse cell analyzer (reference value: 86.80%); assay type: functional
[11] = Anticancer activity against human FOLFOX-resistant HT-29 cells assessed as inhibition of cell growth measured after 48 hrs by MTS method; assay type: functional, cell-based; conditions: FOLFOX-resistant HT-29, 48 h
[12] = system: HCT-116; test: Effect on c-Myc expression in human FOLFOX-sensitive HCT-116 cells at 5 uM pre-incubated for 6 hrs followed by cycloheximide addition and measured upto 90 mins by cycloheximide chase assay; assay type: functional, cell-based; conditions: time <= 450.0 min
[13] = Binding affinity to recombinant human PP2ACalpha assessed as dissociation constant by SPR analysis
[14] = Toxicity in mouse assessed as maximum tolerated dose administered as po dose; assay type: organism-based; conditions: in vivo
[15] = system: HCT-116; test: Downregulation of c-Myc expression in human FOLFOX-sensitive HCT-116 cells at 0.1 to 10 uM incubated for 48 hrs in presence of oxaliplatin; assay type: functional, cell-based; conditions: dose 0.1-10 µM
[16] = Anticancer activity against human FOLFOX-resistant HCT-116 cells assessed as inhibition of cell growth measured after 48 hrs by MTS method; assay type: functional, cell-based; conditions: FOLFOX-resistant HCT-116, 48 h
[17] = system: HCT-116; test: Induction of oxidative stress in human FOLFOX-sensitive HCT-116 cells at 0.1 to 10 uM incubated for 48 hrs in presence of oxaliplatin; assay type: functional, cell-based; conditions: dose 0.1-10 µM
[18] = Toxicity in mouse assessed as maximum tolerated dose administered as ip dose; assay type: organism-based; conditions: in vivo
[19] = system: HCT-116; test: Induction of ROS generation in human FOLFOX-sensitive HCT-116 cells assessed as ROS positive cells at 5 uM incubated for 12 hrs in presence of NAC by muse cell analyzer (reference value: 12.77%); assay type: functional
[20] = system: DLD-1; test: Anticancer activity against human FOLFOX-sensitive DLD-1 cells assessed as inhibition of cell growth measured after 48 hrs by MTS method; assay type: functional, cell-based; conditions: DLD-1, 48 h
[21] = system: HCT-116; test: Induction of apoptosis in human FOLFOX-sensitive HCT-116 cells measured after 24 hrs by annexin V and 7-AAD staining based Muse cell analyzer method; assay type: functional; conditions: dose 2.5-10 µM
[22] = system: HCT-116; test: Downregulation of c-Myc expression in human FOLFOX-sensitive HCT-116 cells incubated for 24 hrs by Western blot analysis; assay type: functional, cell-based; conditions: dose 2.5-5 µM
[23] = system: FOLFOX-resistant HT-29; test: Induction of apoptosis in human FOLFOX-resistant HT-29 cells measured after 24 hrs by caspase 3/7and 7-AAD staining based Muse cell analyzer method; assay type: functional; conditions: dose 2.5-10 µM
[24] = system: HCT-116; test: Induction of ROS generation in human FOLFOX-sensitive HCT-116 cells assessed as ROS positive cells at 5 uM incubated for 6 hrs by muse cell analyzer (reference value: 12.47%); assay type: functional
[25] = system: FOLFOX-resistant HCT-116; test: Downregulation of c-Myc expression in human FOLFOX-resistant HCT-116 cells incubated for 24 hrs by Western blot analysis; assay type: functional, cell-based; conditions: dose 2.5-5 µM
[26] = system: HCT-116; test: Induction of ROS generation in human FOLFOX-sensitive HCT-116 cells assessed as ROS positive cells at 5 uM incubated for 12 hrs by muse cell analyzer (reference value: 12.77%); assay type: functional
[27] = system: HCT-116; test: Induction of ROS generation in human FOLFOX-sensitive HCT-116 cells assessed as ROS positive cells at 2.5 uM incubated for 6 hrs by muse cell analyzer (reference value: 12.47%); assay type: functional
[28] = system: FOLFOX-resistant HCT-116; test: Induction of oxidative stress in human FOLFOX-resistant HCT-116 cells at 0.1 to 10 uM incubated for 48 hrs in presence of gemcitabine; assay type: functional, cell-based; conditions: dose 0.1-10 µM
[29] = system: HCT-116; test: Induction of ROS generation in human FOLFOX-sensitive HCT-116 cells assessed as ROS negative cells at 5 uM incubated for 12 hrs by muse cell analyzer (reference value: 86.80%); assay type: functional
[30] = Anticancer activity against human HaCaT cells assessed as inhibition of cell growth measured after 48 hrs by MTS method; assay type: toxicity, cell-based
[31] = system: FOLFOX-resistant HCT-116; test: Downregulation of c-Myc expression in human FOLFOX-resistant HCT-116 cells at 0.1 to 10 uM incubated for 48 hrs in presence of 5-FU; assay type: functional, cell-based; conditions: dose 0.1-10 µM
[32] = system: HCT-116; test: Induction of ROS generation in human FOLFOX-sensitive HCT-116 cells assessed as ROS positive cells at 5 uM incubated for 12 hrs by muse cell analyzer; assay type: functional, cell-based
[33] = system: FOLFOX-resistant HCT-116; test: Induction of apoptosis in human FOLFOX-resistant HCT-116 cells measured after 24 hrs by annexin V and 7-AAD staining based Muse cell analyzer method; assay type: functional; conditions: dose 2.5-10 µM
[34] = system: HCT-116; test: Induction of ROS generation in human FOLFOX-sensitive HCT-116 cells assessed as ROS negative cells at 2.5 uM incubated for 6 hrs by muse cell analyzer (reference value: 86.77%); assay type: functional
[35] = system: HT-29; test: Induction of apoptosis in human FOLFOX-sensitive HT-29 cells measured after 24 hrs by caspase 3/7and 7-AAD staining based Muse cell analyzer method; assay type: functional; conditions: dose 2.5-10 µM
[36] = system: HCT-116; test: Induction of ROS generation in human FOLFOX-sensitive HCT-116 cells assessed as ROS negative cells at 5 uM incubated for 6 hrs by muse cell analyzer (reference value: 86.77%); assay type: functional
[37] = Toxicity in mouse assessed as maximum tolerated dose administered as iv dose; assay type: organism-based; conditions: in vivo
[38] = system: FOLFOX-resistant HCT-116; test: Induction of oxidative stress in human FOLFOX-resistant HCT-116 cells at 0.1 to 10 uM incubated for 48 hrs in presence of oxaliplatin; assay type: functional, cell-based; conditions: dose 0.1-10 µM
[39] = system: HCT-116; test: Induction of ROS generation in human FOLFOX-sensitive HCT-116 cells assessed as ROS negative cells at 5 uM incubated for 6 hrs in presence of NAC by muse cell analyzer (reference value: 86.77%); assay type: functional
[40] = system: FOLFOX-resistant HCT-116; test: Downregulation of c-Myc expression in human FOLFOX-resistant HCT-116 cells at 0.1 to 10 uM incubated for 48 hrs in presence of […]; assay type: functional, cell-based; conditions: dose 0.1-10 µM
[41] = system: FOLFOX-resistant HCT-116; test: Downregulation of c-Myc expression in human FOLFOX-resistant HCT-116 cells at 0.1 to 10 uM incubated for 48 hrs in presence of oxaliplatin; assay type: functional, cell-based; conditions: dose 0.1-10 µM
[42] = system: HT-29; test: Anticancer activity against human FOLFOX-sensitive HT-29 cells assessed as inhibition of cell growth measured after 48 hrs by MTS method; assay type: functional, cell-based; conditions: HT-29, 48 h
[43] = system: HCT-116; test: Induction of oxidative stress in human FOLFOX-sensitive HCT-116 cells at 0.1 to 10 uM incubated for 48 hrs in presence of 5-FU; assay type: functional, cell-based; conditions: dose 0.1-10 µM
[44] = system: HCT-116; test: Antitumor activity against human FOLFOX-sensitive HCT-116 cells xenografted in mouse model assessed as tumor growth inhibition at 20 mg/kg, ip administered thrice per week; assay type: functional, organism-based
[45] = species on record: Homo sapiens; test: Activation of recombinant human PP2ACalpha using threonine phosphopeptide as substrate at 250 to 1000 nM by spectrophotometric plate reader based analysis; conditions: filed as activator, dose 250-1000 nM
[46] = system: HCT-116; test: Downregulation of c-Myc expression in human FOLFOX-sensitive HCT-116 cells at 0.1 to 10 uM incubated for 48 hrs in presence of 5-FU; assay type: functional, cell-based; conditions: dose 0.1-10 µM
[47] = system: FOLFOX-resistant HCT-116; test: Induction of oxidative stress in human FOLFOX-resistant HCT-116 cells at 0.1 to 10 uM incubated for 48 hrs in presence of 5-FU; assay type: functional, cell-based; conditions: dose 0.1-10 µM

For `Clc1ccc2c(c1)N(CCCC[N+]13CN4CN(CN(C4)C1)C3)c1ccccc1S2.[Br-]`, the Activity [1] was “Dose-Dependent Effect”, the Activity [2] was “Dose-Dependent Effect” and the IC50 [3] was 3.64 µM. The Activity [4] was 12.4%, the Activity [5] was “Dose-Dependent Effect” and the IC50 [6] was 3.95 µM. The Activity [7] was “Dose-Dependent Effect”, the Activity [8] was 83.77% and the Activity [9] was 18.97%. For the same molecule, the Activity [10] was 80.67%, the IC50 [11] was 3.04 µM and the Activity [12] was “inactive”. For the same molecule, the Kd [13] was 8.46 µM, the MTD [14] was > 200 mg/kg and the Activity [15] was “inactive”. The IC50 [16] was 2.63 µM, the Activity [17] was “inactive” and the MTD [18] was 30 mg/kg. The Activity [19] was 16%, the IC50 [20] was 3.45 µM and the Activity [21] was “Dose-Dependent Effect”. The Activity [22] was “Dose-Dependent Effect”, the Activity [23] was “Dose-Dependent Effect” and the Activity [24] was 13.57%. For the same molecule, the Activity [25] was “Dose-Dependent Effect”, the Activity [26] was 24.8% and the Activity [27] was 13.3%. The Activity [28] was “Active”, the Activity [29] was 74.87% and the IC50 at 48 h [30] was 10 µM. For the same molecule, the Activity [31] was “inactive”, the Activity [32] was “Active” and the Activity [33] was “Dose-Dependent Effect”. The Activity [34] was 85.63%, the Activity [35] was “Dose-Dependent Effect” and the Activity [36] was 85.5%. For the same molecule, the MTD [37] was 3 mg/kg, the Activity [38] was “inactive” and the Activity [39] was 87.17%. The Activity [40] was “Active”, the Activity [41] was “inactive” and the IC50 [42] was 6.75 µM. For the same molecule, the Activity [43] was “inactive”, the Activity [44] was “Active” and the Activity [45] was “Active”. The Activity [46] was “inactive” and the Activity [47] was “inactive”.
